From publication PMC9983021, “Novel GluN2B-Selective NMDA Receptor Negative Allosteric Modulator Possesses Intrinsic Analgesic Properties and Enhances Analgesia of Morphine in a Rodent Tail Flick Pain Model” (ACS Chemical Neuroscience, 2023) come the findings set out here.

The structures appear in SMILES notation. Where two headings read alike, the source gives them in different places. Bounds are passed on as bounds.

The target of data set [1] is GluN1/GluN2A (Rattus norvegicus, UniProt P35439+Q00959).
Data set [2] addresses GluN1/GluN2D (Rattus norvegicus, UniProt P35439+Q62645).
A short description of data set [3]: Determination of plasma and brain concentrations. Particulars: Sprague-Dawley, rat, ip, male rats, 60 mg/kg i.p. Type of data set: in vivo. Here is the method: Brain concentrations were measured from whole forebrain homogenate at each time point.
Trunk blood was collected in K-EDTA tubes and then spun in a microcentrifuge at 3500 rpm for 10 min to separate plasma, which was then transferred to a clean tube and frozen on dry ice. To prepare forebrain tissue samples, the whole brain was removed from the skull, the cerebellum and brainstem cut away, the meninges were removed, and the forebrain was then rinsed with ice-cold normal saline, after which it was blotted dry with filter paper and weighed on a microbalance. To each forebrain 2.5 mL of ice-cold 50 mM K-phosphate buffer (pH 7.4) was then added and the samples homogenized with a hand-held homogenizer. The brain homogenates were then transferred to clean tubes (2 per brain) and frozen on dry ice.
Plasma and brain homogenate samples were analyzed by LC-MS/MS operating in multiple reaction monitor mode (MRM) by Ricerca Biosciences (Dublin, OH). […] The amount of parent compound in each plasma or brain sample was calculated by comparing the response of the analyte in the sample to that of a standard curve (Ricerca, OH).

For data set [4], the target named is T1, Alpha1A (α1A) (Homo sapiens, UniProt P35348).
T1 sequence (P35348 1-466): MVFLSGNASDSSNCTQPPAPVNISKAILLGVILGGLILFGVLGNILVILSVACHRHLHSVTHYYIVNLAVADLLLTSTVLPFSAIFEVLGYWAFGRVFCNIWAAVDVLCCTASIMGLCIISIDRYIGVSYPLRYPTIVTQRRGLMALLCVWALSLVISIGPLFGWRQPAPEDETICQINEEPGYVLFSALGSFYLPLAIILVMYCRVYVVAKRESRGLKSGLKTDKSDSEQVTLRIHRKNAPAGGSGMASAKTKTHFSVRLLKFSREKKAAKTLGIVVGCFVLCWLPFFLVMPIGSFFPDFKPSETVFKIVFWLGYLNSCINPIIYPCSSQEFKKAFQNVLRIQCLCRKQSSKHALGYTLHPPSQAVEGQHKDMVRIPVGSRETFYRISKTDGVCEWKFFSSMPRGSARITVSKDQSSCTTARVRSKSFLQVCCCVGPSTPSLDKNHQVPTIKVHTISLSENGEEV
In words: Radioligand binding assay (NIMH PDSP). As to the method: (§1) Compound EU93-108 was also tested for inhibition of binding of probes to a range of GPCRs and other targets (Table 4 and Supporting Table S4). […] EU93-108 produced significant displacement of binding probes for the 5-HT2 receptors and α-1-adrenergic receptors, as well as D3, H1, and σ1 receptors. Concentration–response binding competition curves for these targets were used to determine Ki values (Table 4). Given that the brain concentration of EU93-108 achieved 30 min post i.p. injection is 18 μM (Figure 6), the doses that yield our desired antinociceptive effects may engage some of the receptors listed in Table 4.
(§2) Conventional competition and saturation radioligand binding assays were used to determine the affinities of reference standards and EU93-108. Experiments were carried out by the NIMH Psychoactive Drug Screening Program (PDSP) and were performed as previously described.[123]
(§3) The detailed experimental protocols for the radioligand assays are available on the NIMH PDSP website at https://pdsp.unc.edu/pdspweb/content/UNC-CH%20Protocol%20Book.pdf.
(§4) Receptor Mean % Receptor Mean % Receptor Mean %
(§5) Inhibition Inhibition Inhibition
(§6) Supplemental Table S4. Off-Target Actions of EU93-108: Primary GPCR Screen. Cloned human molecular targets were individually expressed and submitted to molecular target-based screening with initial screens performed at a final concentration of 10 µM in quadruplicate. Complete protocols for the assays have been previously published (Besnard J et al. 2012). Where inhibition greater than 50% was measured, secondary screens were performed wherein Ki values were calculated (see Table 4).

For data set [5], the target named is D3 (Homo sapiens, UniProt P35462). In words: Radioligand binding assay (NIMH PDSP). Here is the method:
as §1, §2, §3, §4, §5, §6

The target of data set [6] is 5-HT2A (Homo sapiens, UniProt P28223). In words: Radioligand binding assay (NIMH PDSP). Here is the method: as §1, §2, §3, §4, §5, §6
Where [7] appears, read: agonist 100 µM glutamate, 30 µM glycine, mean ± SEM.
[8] abbreviates: read-out: Mean % Inhibition by 10 μM EU93-108.
Setting [9] is: primary screen, 10 µM, quadruplicate.
The mark [10] stands for this setting: ratio of Ki to the IC50 for EU93-108 (555 nM) at GluN2B.
Where [11] appears, read: secondary screen, binding competition curve.

Chain of 5-HT2A (P28223 whole entry): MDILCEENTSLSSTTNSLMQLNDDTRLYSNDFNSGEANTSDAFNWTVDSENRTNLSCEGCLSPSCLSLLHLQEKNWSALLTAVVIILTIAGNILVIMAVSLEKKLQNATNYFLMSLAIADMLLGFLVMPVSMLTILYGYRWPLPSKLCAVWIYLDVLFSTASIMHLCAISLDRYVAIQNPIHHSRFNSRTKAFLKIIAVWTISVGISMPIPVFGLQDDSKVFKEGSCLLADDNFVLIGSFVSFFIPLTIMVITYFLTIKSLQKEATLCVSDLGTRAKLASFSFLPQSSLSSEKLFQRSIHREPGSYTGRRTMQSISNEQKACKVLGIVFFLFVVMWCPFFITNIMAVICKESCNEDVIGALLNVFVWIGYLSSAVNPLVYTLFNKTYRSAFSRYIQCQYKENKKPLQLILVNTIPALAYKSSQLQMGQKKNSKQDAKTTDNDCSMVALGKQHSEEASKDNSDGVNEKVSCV
Chain of D3 (P35462 whole entry): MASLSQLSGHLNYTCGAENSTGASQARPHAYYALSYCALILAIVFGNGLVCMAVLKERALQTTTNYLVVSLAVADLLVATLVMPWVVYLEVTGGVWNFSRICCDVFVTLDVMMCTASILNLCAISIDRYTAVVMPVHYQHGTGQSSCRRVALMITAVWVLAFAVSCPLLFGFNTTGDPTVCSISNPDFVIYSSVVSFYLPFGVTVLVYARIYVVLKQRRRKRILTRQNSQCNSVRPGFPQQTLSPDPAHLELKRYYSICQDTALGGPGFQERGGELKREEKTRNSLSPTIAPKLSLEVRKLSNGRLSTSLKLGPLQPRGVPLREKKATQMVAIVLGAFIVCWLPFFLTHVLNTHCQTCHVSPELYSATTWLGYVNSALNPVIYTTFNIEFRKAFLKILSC
Chain of GluN1/GluN2A (Q00959 23-1464, other chains not shown): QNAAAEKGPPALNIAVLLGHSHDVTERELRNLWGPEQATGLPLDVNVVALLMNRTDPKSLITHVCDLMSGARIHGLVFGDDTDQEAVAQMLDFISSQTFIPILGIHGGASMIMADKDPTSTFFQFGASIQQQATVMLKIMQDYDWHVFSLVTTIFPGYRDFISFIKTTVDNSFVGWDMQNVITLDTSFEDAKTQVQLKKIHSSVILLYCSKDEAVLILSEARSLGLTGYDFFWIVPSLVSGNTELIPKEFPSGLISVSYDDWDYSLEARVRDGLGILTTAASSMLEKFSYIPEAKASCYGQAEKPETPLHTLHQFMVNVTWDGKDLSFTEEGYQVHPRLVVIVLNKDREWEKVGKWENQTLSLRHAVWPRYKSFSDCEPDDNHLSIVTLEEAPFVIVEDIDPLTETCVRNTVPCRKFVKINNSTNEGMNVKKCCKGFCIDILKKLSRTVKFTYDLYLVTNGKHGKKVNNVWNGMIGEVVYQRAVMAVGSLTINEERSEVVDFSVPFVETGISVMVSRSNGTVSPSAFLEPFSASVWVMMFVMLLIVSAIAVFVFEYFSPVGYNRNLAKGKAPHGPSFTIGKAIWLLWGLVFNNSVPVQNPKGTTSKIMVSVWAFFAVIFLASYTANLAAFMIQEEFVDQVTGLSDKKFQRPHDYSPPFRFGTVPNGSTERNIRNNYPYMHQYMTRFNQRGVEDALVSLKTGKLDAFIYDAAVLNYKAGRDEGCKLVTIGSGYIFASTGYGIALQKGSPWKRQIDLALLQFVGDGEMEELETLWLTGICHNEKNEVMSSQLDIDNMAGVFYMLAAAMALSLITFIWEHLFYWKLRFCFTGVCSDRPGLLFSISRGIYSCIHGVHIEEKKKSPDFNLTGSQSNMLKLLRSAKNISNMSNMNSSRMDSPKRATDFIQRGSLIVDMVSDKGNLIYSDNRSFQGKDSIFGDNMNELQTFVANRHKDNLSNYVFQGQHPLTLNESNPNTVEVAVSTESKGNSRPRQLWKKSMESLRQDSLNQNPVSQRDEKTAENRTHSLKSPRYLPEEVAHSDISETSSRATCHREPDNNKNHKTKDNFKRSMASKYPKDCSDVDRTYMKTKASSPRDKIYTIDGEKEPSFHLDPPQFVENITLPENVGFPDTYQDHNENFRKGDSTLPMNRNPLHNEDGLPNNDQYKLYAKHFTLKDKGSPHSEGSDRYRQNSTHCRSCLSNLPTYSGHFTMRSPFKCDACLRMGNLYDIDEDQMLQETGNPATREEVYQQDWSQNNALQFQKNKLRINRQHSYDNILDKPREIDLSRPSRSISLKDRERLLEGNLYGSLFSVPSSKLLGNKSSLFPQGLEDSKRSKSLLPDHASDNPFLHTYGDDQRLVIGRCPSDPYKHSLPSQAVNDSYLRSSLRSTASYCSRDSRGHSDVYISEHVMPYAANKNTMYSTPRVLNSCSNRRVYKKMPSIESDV
Chain of GluN1/GluN2D (Q62645 28-1323, other chains not shown): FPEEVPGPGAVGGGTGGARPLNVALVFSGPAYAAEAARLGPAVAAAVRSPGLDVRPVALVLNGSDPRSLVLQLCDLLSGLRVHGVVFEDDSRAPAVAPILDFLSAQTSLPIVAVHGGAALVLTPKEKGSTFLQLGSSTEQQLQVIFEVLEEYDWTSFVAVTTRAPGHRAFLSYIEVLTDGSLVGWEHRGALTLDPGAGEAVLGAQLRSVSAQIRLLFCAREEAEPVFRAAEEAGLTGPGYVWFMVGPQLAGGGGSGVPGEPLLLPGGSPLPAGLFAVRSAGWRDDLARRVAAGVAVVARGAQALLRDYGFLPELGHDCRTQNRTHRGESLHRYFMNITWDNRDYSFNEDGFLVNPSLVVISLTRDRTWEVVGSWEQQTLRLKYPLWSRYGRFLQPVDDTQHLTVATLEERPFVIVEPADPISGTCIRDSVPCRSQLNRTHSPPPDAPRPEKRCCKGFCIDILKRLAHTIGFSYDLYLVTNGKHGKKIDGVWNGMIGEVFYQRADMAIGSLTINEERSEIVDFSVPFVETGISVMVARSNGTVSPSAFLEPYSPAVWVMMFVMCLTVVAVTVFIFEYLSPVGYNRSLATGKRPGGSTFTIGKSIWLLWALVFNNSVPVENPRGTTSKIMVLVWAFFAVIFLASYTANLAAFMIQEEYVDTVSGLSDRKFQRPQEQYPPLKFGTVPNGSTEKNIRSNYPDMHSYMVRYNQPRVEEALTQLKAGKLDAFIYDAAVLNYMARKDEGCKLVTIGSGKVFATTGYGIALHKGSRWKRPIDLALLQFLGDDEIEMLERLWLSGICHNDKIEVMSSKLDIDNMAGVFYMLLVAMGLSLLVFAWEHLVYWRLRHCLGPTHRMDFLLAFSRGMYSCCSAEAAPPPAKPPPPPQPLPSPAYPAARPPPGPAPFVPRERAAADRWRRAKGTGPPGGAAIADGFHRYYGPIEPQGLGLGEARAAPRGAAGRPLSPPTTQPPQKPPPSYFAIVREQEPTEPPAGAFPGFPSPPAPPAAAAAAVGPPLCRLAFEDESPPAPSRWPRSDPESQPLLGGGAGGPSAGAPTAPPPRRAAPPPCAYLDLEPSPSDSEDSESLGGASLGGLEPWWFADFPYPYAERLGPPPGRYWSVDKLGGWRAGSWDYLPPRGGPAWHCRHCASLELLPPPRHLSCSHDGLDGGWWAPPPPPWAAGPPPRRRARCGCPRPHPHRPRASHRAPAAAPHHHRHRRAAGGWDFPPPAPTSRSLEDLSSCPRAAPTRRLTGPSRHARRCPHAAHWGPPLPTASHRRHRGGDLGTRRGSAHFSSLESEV

What is called inhibition is the share of the control response that was lost under treatment. In general, Cmax refers to the peak of the concentration-time curve. Broadly, the half-life is the time in which the quantity being followed falls by half. Low values mean fast loss, high ones slow loss. As usually defined, the Ki is the dissociation constant of the complex between target and ligand, obtained from inhibition or displacement. A lower Ki goes with higher affinity. In the case of `CS(=O)(=O)Nc1ccc(OC[C@@H](O)CN2CCN(c3ccc(F)c(F)c3)CC2)cc1` [EU93-108, (S)-N-(4-(3-(4-(3,4-Difluorophenyl)piperazin-1-yl)-2-hydroxypropoxy)phenyl)methanesulfonamide], the “% Control 10 µM EU93-108” value was determined as 95.6 ± 1.6% in data set [1] (setting [7]) and 97 ± 1.9% in data set [2] (setting [7]). Moreover, the inhibition at 10 µM in data set [1] (setting [8]) was determined as 4.6 ± 1.5%; in data set [2] (setting [8]), 4.6 ± 1.2%; in data set [4] (setting [9]), 86.3%; in data set [5] (setting [9]), 67.1%; in data set [6] (setting [9]), 83.8%. The Kp at 60 min in data set [3] (brain (forebrain homogenate) / plasma, from Cmax, read-out: brain-to-plasma ratio) was 0.6. The Cmax in data set [3] (brain (whole forebrain homogenate), whole forebrain homogenate, read-out: Cmax in brain) amounted to 18 µM; in data set [3] (plasma, read-out: Cmax in plasma), 30 µM. In data set [3] (plasma and brain (forebrain homogenate)), the half-life was over 240 min. Besides, in data set [3] (plasma and brain (forebrain homogenate), read-out: time of peak concentration (Tmax) (converted)), the Tmax was 30 min. Further, the “Ki/IC50 of EU93-108” value in data set [4] (setting [10]) is reported as 0.31; in data set [5] (setting [10]) it was 0.34; in data set [6] (setting [10]), 0.88. The Ki in data set [4] (setting [11]) was determined as 0.17 µM; in data set [5] (setting [11]) it was 0.19 µM; in data set [6] (setting [11]) it was 0.49 µM.
